Article PMC11277992, “New Zosteropenillines and Pallidopenillines from the Seagrass-Derived Fungus Penicillium yezoense KMM 4679” (Marine Drugs, 2024)
Like-named read-outs stand apart in the source and are kept apart here.

Columns and labels:
PC-3 cells [1] = assay: Migration (scratch) assay; format: cell-based, human; conditions: 24 h
Method: Silicone 2-well inserts (Ibidi®, Gräfelfing, Germany) were used for formation of a free cell zone in the PC-3 cells’ monolayer. After removing the insert, the gap between the cells was 500 ± 50 μm. The cells were washed twice with PBS after removing the inserts and staining with (5,6)-carboxyfluorescein succinimidyl ester (CFDA SE) (Lumiprobe, Moscow, Russia) fluorescence dye. Then, cells were treated with compound or culture medium only (vehicle control) for 24 h. Cell migration into the wound area was observed under a fluorescence microscope (MIB-2-FL; LOMO, St. Petersburg, Russia) with objective 10× magnification.

[2] = test system: cervical HeLa cancer cells; assay: Cytotoxic activity (MTT assay); format: cell-based, human; conditions: for IC50: Homo sapiens, HeLa, read-out: IC50, HeLa cells
PC-3 cells [3] = assay: Colony formation (clonogenic) assay; format: cell-based; conditions: Homo sapiens, PC-3, 240 h; 10 days; read-out: half-maximal concentration of the inhibition of PC-3 colony formation
Method: The influence of compounds on colony formation by PC-3 cells was tested by the clonogenic assay. The concentration of PC-3 cells was 0.33 × 10^3/mL. The cells were incubated for 10 days, and then they were fixed with methanol (25 min), staining with 0.5% solution of crystal violet (25 min) and washing with PBS. The counting of grown colonies was carried out using a BIO-PRINT-Cx4 Edge-Fixed Pad-Container (Vilber, Collegien, France) using Bio-Vision Software user and service manual-v18.01 (Vilber, Collegien, France). The results are presented as colony inhibition in comparison with the control.

[4] = test system: normal human kidney cells; assay: Cytotoxic activity (MTT assay); format: cell-based; conditions: 100 µM, 24 h
Method: (§1) The influence of compounds 1, 2 and 4–14 on the viability of normal human kidney […] cells, as well as human prostate PC-3, cervical HeLa and breast MCF-7 cancer cells, was measured using the MTT assay after 24 h of treatment.
(§2) The human prostate cancer cells PC-3 and CRL-1435 and the human embryonic kidney cells HEK-293 and CRL-1573TM were purchased from the American Type Culture Collection (ATCC; Manassas, VA, USA). PC-3 and HEK-293 cells were cultured in DMEM medium containing 10% fetal bovine serum (Biolot, St. Petersburg, Russia) and 1% penicillin/streptomycin (Biolot, St. Petersburg, Russia) at 37 °C in a humidified atmosphere with 5% (v/v) CO2. The cells were incubated in cultural flasks until sub-confluent (~80%).
(§3) PC-3 cells (5 × 10^3 cells/well) and HEK 293 cells (8 × 10^3 cells/well) were seeded in a 96-well plate and incubated overnight. Then, compounds were added at concentrations of 1–100 μM and incubated for another 24 h. Cell viability was then determined by the MTT (3-(4,5-dimethylthiazol-2-yl)-2,5-diphenyltetrazolium bromide) method according to the manufacturer’s instructions (Sigma-Aldrich, St. Louis, MO, USA). The absorbance of the converted formazan was measured using a Multiskan FC microplate photometer (Thermo Scientific, Waltham, MA, USA) at λ = 570 nm. The results are presented as percentages of the control data.

[5] = test system: breast MCF-7 cancer cells; assay: Cytotoxic activity (MTT assay); format: cell-based, human; conditions: for IC50: Homo sapiens
Method: as §1
as §3, with “Then, compounds were added at concentrations of 1–100 μM and incubated for another 24 h.” left out

MCF-7 cells [6] = assay: Drug combination study with doxorubicin (MTT); format: cell-based, human; conditions: 24 h
HeLa cells [7] = assay: Colony formation (clonogenic) assay; format: cell-based; conditions: Homo sapiens, 240 h, 10 days, read-out: half-maximal concentration of the inhibition of HeLa colony formation
HeLa cells [8] = assay: Migration (scratch) assay; format: cell-based, human; conditions: 24 h
[9] = test system: human prostate PC-3 cancer cells; assay: Cytotoxic activity (MTT assay); format: cell-based; conditions: for IC50: Homo sapiens
Method: as §2
as §3, with “Then, compounds were added at concentrations of 1–100 μM and incubated for another 24 h.” left out

MCF-7 cells [10] = assay: Cell viability after pretreatment with 4-OHT (estrogen receptor inhibitor); format: cell-based, human; conditions: 14 at 75 µM, 4-OHT at 10 µM
Method: (§4) To detect the possible target of 14, we used 4-hydroxytamoxifen (4-OHT) at a concentration of 10 µM as a known inhibitor of estrogen receptors (ERs), and the data are presented in Figure 14.
(§5) Figure 14 The influence of 14 (at a 75 µM) on cell viability in the presence of 4-OHT (at 10 µM). Data are presented as the mean ± SEM. * p-value ≤ 0.05 considered significant.

HeLa cells [11] = assay: as above; format: cell-based, human; conditions: 14 at 75 µM, 4-OHT at 10 µM
Method: as §4, §5

PC-3 cells [12] = assay: as above; format: cell-based, human; conditions: 14 at 75 µM, 4-OHT at 10 µM
Method: as §4, §5

[13] = test system: Escherichia coli VKPM (B-7935); assay: Antimicrobial activity, microbial growth in broth (OD620); format: cell-based; conditions: compound at 100 µM, read-out: Inhibition of Microbial Growth, % of Control, E. coli
Method: (§6) The yeast-like fungus Candida albicans KMM 455 and bacterial strains Staphylococcus aureus ATCC 21027 and Escherichia coli VKPM (B-7935) (Collection of Marine Microorganisms PIBOC FEB RAS) were cultured on solid-medium Mueller–Hinton broth with agar (16.0 g/L) in a Petri dish at 37 °C for 24 h. The assays were performed in 96-well microplates in an appropriate Mueller–Hinton broth. Each well contained 90 µL of a bacterial or yeast-like fungal suspension (10^6 CFU/mL). Then, 10 µL was added of a compound diluted at concentrations from 1.5 µM to 100.0 µM using twofold dilution (DMSO concentration < 1%). Culture plates were incubated overnight at 37 °C, and the OD620 was measured using a Multiskan FC spectrophotometer (Thermo Scientific Inc., Beverly, MA, USA). The antibiotic gentamicin and antifungal agent nitrofungin were used as positive controls at 1 mg/mL; 1% DMSO in PBS served as a negative control. Examination was performed twice and in triplicate. The results were calculated as a percentage of the control data using SigmaPlot 14.0 software.

[14] = test system: Staphylococcus aureus ATCC 21027; assay: as above; format: cell-based; conditions: ATCC21027, compound at 100 µM, read-out: Inhibition of Microbial Growth, % of Control, S. aureus
Method: as §6

Candida albicans KMM 455 = assay: as above; format: cell-based; conditions: Candida albicans, KMM455; compound at 100 µM; read-out: Inhibition of Microbial Growth, % of Control, C. albicans
Method: as §6

MCF-7 cells [15] = assay: Colony formation (clonogenic) assay; format: cell-based; conditions: Homo sapiens, MCF7, 240 h; 10 days; read-out: half-maximal concentration of the inhibition of MCF-7 colony formation
MCF-7 cells [16] = assay: Migration (scratch) assay; format: cell-based, human; conditions: 24 h

In the case of CC(=O)OCCC(=O)[C@@H]1[C@H]2CC[C@H](C)[C@@H](O)[C@@H]2C=C[C@@]1(C)O [Compound 14, 1-acetylpallidopenilline A], the “migration of PC-3 cells” value (PC-3 cells [1]) is reported as “did not affect”, the “Cell Viability, % of Control, HeLa” value ([2]; 100 µM, 24 h, MTT) is reported as 53.44 ± 2.14 % of Control and the IC50 ([2]; 48 h) is reported as 82.7 µM. The IC50 ([2]; 72 h) was 73.2 µM, the IC50 (PC-3 cells [3]) was 2.48 ± 0.11 µM and the “Cell Viability, % of Control, HEK-298” value [4] was 96.92 ± 4.83 % of Control. The “Cell Viability, % of Control, MCF-7” value ([5]; 100 µM, 24 h, MTT) was 23.71 ± 1.05 % of Control, the IC50 ([5]; MCF7, 24 h, read-out: half-maximal inhibition of the viability of MCF-7 cells) was 72 ± 2.48 µM and the IC50 ([5]; MCF7, 48 h, read-out: IC50, MCF-7 cells) was 54.7 µM. For the same molecule, the IC50 ([5]; MCF7, 72 h, read-out: IC50, MCF-7 cells) was 41 µM, the “decrease of MCF-7 cell viability” value (MCF-7 cells [6]; combination of 14 with doxorubicin at 0.1 µM) was 50% and the “toxicity to MCF-7 cells compared with doxorubicin alone” value (MCF-7 cells [6]; combination of 14 with doxorubicin at 1 µM) was “more toxic”. The IC50 (HeLa cells [7]) was 0.96 ± 0.02 µM, the “migration of HeLa cells” value (HeLa cells [8]) was “significantly inhibited” and the “Cell Viability, % of Control, PC-3” value ([9]; 100 µM, 24 h, MTT) was 45.91 ± 0.67 % of Control. For the same molecule, the IC50 ([9]; PC-3, 24 h, read-out: IC50, PC-3 cell viability) was 94.2 ± 1.13 µM, the IC50 ([9]; PC-3, 48 h, read-out: IC50, PC-3 cells) was 63.4 µM and the IC50 ([9]; PC-3, 72 h, read-out: IC50, PC-3 cells) was 48.5 µM. For the same molecule, the “cytotoxicity of 14 after pretreatment with 4-OHT versus 14 alone” value (shortened to “cytotoxicity … with 4-OHT versus 14 alone”) (MCF-7 cells [10]) was “significant decrease in the cytotoxicity”, the “cytotoxicity … with 4-OHT versus 14 alone” value (HeLa cells [11]) was “No significant differences” and the “cytotoxicity … with 4-OHT versus 14 alone” value (PC-3 cells [12]) was “No significant differences”. For the same molecule, the inhibition of growth at 100 µM [13] was 0%, the inhibition of growth at 100 µM [14] was 31.6 ± 7.8% and the inhibition of growth at 100 µM (Candida albicans KMM 455) was 0%. For the same molecule, the IC50 (MCF-7 cells [15]) was 0.66 µM and the “migration of MCF-7 cells” value (MCF-7 cells [16]) was “significantly inhibited”.
